Test results reported in the kinase profiling compilation of Christmann-Franck et al. (2016).

What was measured:
Assay in all cases: KINOMEscan competition binding
Conditions in all cases: compound 10.0 µM
FGFR2 (human) = FGFR2 (human) (UniProt P21802)
PRKCQ (human) = PRKCQ (human) (UniProt Q04759)
STK25 (human) = STK25 (human) (UniProt O00506)
MAPK9 (human) = MAPK9 (human) (UniProt P45984)
[1] = target: JAK3 JH1 catalytic (human) (UniProt P52333)
DAPK1 (human) = DAPK1 (human) (UniProt P53355)
RPS6KA3 KD1 (human) = RPS6KA3 KD1 (human) (UniProt P51812)
MAPK14 (human) = MAPK14 (human) (UniProt Q16539)
PLK4 (human) = PLK4 (human) (UniProt O00444)
[2] = test system: FLT3 (human), P36888 [D835H]
CHEK2 (human) = CHEK2 (human) (UniProt O96017)
CDK5 (human) = CDK5 (human) (UniProt Q00535)
Chain of CDK5 (human) (Q00535 whole entry, looked up): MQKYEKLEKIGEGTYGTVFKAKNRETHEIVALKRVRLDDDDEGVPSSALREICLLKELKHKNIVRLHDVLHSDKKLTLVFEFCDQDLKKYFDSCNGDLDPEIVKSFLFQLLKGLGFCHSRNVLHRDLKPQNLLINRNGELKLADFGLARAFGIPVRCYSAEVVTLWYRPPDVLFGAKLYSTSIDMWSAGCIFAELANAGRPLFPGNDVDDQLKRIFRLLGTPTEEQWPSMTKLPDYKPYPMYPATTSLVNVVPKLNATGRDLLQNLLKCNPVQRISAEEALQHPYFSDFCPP

MAP3K9 (human) = MAP3K9 (human) (UniProt P80192)
[3] = test system: KIT (human), P10721 [V559D/T670I]
Chain of KIT (human), P10721 [V559D/T670I] (P10721 whole entry V559D/T670I, looked up): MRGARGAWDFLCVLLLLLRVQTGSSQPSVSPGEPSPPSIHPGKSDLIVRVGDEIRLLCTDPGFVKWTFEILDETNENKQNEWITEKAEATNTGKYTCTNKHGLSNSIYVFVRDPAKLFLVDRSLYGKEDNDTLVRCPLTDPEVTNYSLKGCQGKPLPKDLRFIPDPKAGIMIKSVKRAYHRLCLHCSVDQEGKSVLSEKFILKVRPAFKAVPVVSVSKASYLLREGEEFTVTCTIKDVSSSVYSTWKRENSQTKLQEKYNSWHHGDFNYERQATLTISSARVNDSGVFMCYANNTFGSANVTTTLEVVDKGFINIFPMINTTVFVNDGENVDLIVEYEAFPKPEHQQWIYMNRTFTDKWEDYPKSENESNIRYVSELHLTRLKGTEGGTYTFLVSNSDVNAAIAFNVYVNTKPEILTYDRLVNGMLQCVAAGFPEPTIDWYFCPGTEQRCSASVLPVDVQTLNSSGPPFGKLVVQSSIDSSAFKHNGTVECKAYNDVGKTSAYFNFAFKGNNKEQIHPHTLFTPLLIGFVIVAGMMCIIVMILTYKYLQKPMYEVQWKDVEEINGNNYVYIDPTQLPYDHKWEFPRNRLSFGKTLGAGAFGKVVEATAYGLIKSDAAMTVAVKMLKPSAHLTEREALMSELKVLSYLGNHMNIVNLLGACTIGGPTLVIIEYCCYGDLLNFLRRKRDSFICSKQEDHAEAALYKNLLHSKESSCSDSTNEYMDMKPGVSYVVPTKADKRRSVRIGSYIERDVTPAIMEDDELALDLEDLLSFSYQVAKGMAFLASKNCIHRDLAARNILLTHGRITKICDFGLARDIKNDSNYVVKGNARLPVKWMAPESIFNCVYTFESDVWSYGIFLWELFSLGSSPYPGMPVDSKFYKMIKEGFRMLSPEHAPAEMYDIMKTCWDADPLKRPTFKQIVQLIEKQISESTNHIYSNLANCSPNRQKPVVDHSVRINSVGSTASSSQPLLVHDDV

CDKL2 (human) = CDKL2 (human) (UniProt Q92772)
Chain of CDKL2 (human) (Q92772 whole entry, looked up): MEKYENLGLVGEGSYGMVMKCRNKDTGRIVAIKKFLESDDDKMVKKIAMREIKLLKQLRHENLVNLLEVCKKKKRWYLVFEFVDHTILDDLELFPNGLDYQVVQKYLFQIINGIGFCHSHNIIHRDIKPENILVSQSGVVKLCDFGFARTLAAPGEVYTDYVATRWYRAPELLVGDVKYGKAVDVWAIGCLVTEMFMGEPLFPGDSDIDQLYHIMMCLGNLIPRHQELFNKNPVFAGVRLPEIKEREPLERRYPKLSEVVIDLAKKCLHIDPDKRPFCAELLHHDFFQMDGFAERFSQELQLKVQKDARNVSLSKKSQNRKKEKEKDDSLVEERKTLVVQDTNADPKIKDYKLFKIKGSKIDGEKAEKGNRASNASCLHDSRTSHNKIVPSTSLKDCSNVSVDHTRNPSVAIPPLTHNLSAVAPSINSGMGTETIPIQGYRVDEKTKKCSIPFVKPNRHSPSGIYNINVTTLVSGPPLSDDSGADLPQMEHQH

LTK (human) = LTK (human) (UniProt P29376)
MINK1 (human) = MINK1 (human) (UniProt Q8N4C8)
STK16 (human) = STK16 (human) (UniProt O75716)
MKNK2 (human) = MKNK2 (human) (UniProt Q9HBH9)
Chain of MKNK2 (human) (Q9HBH9 whole entry, looked up): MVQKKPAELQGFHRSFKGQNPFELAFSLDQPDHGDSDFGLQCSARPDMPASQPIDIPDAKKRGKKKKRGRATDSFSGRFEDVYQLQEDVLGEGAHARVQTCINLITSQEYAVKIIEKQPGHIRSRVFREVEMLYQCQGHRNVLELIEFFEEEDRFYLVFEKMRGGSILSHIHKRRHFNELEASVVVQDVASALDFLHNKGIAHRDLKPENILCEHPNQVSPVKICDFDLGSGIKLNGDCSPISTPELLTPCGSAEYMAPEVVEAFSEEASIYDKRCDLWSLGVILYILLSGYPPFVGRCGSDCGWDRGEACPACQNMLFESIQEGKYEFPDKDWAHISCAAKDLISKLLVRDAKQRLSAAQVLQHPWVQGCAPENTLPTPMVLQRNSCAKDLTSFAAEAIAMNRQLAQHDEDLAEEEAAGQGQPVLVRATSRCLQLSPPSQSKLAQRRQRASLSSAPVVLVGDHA

EGFR (human) = EGFR (human) (UniProt P00533)
ULK3 (human) = ULK3 (human) (UniProt Q6PHR2)
TGFBR1 (human) = TGFBR1 (human) (UniProt P36897)
TAOK1 (human) = TAOK1 (human) (UniProt Q7L7X3)
Chain of TAOK1 (human) (Q7L7X3 whole entry, looked up): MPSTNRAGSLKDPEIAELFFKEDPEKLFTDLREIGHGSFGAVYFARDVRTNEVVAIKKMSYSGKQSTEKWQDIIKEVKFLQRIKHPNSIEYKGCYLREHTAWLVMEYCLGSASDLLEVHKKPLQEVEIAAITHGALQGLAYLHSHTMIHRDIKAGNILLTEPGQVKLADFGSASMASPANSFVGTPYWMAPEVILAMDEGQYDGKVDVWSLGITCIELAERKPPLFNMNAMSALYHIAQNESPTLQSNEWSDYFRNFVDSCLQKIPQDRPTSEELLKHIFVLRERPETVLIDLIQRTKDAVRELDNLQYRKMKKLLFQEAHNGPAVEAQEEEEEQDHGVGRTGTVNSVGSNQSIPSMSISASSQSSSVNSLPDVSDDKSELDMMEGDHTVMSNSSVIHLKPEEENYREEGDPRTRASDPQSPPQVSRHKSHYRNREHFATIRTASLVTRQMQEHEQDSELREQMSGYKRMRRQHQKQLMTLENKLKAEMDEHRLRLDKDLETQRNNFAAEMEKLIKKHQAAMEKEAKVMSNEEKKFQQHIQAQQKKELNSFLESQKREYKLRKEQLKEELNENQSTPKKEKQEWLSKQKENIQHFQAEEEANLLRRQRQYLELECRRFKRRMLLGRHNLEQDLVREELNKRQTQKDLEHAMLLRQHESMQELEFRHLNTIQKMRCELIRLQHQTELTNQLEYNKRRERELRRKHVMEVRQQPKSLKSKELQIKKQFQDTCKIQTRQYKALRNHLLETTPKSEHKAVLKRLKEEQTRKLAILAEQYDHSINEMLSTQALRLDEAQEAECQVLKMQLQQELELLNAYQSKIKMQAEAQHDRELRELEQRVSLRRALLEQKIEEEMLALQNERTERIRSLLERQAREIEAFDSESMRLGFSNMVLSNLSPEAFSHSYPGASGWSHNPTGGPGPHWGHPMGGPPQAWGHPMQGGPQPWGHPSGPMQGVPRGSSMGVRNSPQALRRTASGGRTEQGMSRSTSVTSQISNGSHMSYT

PRKCH (human) = PRKCH (human) (UniProt P24723)
MAP3K10 (human) = MAP3K10 (human) (UniProt Q02779)
STK17A (human) = STK17A (human) (UniProt Q9UEE5)
ACVR1B (human) = ACVR1B (human) (UniProt P36896)
GAK (human) = GAK (human) (UniProt O14976)
DDR1 (human) = DDR1 (human) (UniProt Q08345)
[4] = test system: ABL1 (human), P00519 [Y253F]
MYLK (human) = MYLK (human) (UniProt Q15746)
EPHA7 (human) = EPHA7 (human) (UniProt Q15375)
PIK3CG (human) = PIK3CG (human) (UniProt P48736)
MAPK4 (human) = MAPK4 (human) (UniProt P31152)
MAP4K1 (human) = MAP4K1 (human) (UniProt Q92918)
MAP3K3 (human) = MAP3K3 (human) (UniProt Q99759)
FLT4 (human) = FLT4 (human) (UniProt P35916)
Chain of FLT4 (human) (P35916 whole entry, looked up): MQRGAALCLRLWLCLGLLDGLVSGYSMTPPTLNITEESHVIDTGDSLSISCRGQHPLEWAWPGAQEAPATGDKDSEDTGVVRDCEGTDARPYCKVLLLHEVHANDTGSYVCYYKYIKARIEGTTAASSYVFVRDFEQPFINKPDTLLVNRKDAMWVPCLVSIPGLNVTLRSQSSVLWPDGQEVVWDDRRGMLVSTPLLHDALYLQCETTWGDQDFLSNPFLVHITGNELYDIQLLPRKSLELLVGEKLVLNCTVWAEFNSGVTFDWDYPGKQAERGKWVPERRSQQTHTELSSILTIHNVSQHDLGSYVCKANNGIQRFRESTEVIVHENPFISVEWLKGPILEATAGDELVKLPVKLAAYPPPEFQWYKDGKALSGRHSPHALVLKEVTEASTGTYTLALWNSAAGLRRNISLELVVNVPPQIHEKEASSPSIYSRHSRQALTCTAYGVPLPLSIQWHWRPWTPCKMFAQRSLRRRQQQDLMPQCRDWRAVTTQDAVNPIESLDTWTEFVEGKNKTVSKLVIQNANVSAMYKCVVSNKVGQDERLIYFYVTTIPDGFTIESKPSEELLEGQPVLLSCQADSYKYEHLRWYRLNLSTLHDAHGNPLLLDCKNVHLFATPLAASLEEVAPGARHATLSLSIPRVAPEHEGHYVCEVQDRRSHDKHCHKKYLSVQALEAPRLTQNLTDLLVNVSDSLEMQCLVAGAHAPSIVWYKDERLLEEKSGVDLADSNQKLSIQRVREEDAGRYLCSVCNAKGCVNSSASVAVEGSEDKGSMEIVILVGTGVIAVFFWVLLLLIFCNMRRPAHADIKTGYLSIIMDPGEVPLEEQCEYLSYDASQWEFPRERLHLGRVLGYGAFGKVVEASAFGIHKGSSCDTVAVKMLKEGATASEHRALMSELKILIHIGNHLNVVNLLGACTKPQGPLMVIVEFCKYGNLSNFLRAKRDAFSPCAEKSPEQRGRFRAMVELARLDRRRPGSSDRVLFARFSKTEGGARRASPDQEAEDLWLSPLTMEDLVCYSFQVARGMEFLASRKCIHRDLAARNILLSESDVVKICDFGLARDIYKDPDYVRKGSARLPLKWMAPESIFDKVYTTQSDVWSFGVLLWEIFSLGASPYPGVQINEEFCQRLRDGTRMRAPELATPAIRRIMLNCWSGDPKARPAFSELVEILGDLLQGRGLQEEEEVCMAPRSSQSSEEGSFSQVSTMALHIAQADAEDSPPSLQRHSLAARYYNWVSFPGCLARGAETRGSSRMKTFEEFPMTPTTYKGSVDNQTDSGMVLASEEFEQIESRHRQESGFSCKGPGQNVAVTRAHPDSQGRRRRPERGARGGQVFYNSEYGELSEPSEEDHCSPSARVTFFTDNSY

NUAK1 (human) = NUAK1 (human) (UniProt O60285)
EPHA5 (human) = EPHA5 (human) (UniProt P54756)
LIMK1 (human) = LIMK1 (human) (UniProt P53667)
CLK3 (human) = CLK3 (human) (UniProt P49761)
IRAK3 (human) = IRAK3 (human) (UniProt Q9Y616)

Chain of MAPK9 (human) (P45984 whole entry, looked up): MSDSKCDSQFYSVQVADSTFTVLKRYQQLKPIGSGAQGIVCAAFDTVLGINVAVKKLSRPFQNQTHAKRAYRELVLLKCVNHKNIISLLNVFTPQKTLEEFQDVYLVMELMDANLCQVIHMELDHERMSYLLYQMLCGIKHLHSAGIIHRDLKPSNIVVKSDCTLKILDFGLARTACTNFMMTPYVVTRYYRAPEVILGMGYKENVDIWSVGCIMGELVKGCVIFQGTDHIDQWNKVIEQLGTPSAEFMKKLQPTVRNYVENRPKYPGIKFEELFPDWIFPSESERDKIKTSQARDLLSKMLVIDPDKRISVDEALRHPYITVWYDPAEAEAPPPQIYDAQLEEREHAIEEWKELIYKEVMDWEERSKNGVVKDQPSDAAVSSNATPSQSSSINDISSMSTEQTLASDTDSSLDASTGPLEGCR

`CCN1CCN(Cc2ccc(NC(=O)c3ccc(C)c(/C=C/c4cnc(Nc5cc(N6CCNCC6)nc(C)n5)cn4)c3)cc2C(F)(F)F)CC1` gave a kinase still bound, per cent of control (FGFR2 (human)) of 10%, a kinase still bound, per cent of control (PRKCQ (human)) of 81% and a kinase still bound, per cent of control (STK25 (human)) of 35%. It also gave a kinase still bound, per cent of control (MAPK9 (human)) of 0.7%, a kinase still bound, per cent of control [1] of 3.2% and a kinase still bound, per cent of control (DAPK1 (human)) of 85%. For the same molecule, the kinase still bound, per cent of control (RPS6KA3 KD1 (human)) was 43%, the kinase still bound, per cent of control (MAPK14 (human)) was 4.6% and the kinase still bound, per cent of control (PLK4 (human)) was 92%. The kinase still bound, per cent of control [2] was 2.4%, the kinase still bound, per cent of control (CHEK2 (human)) was 83% and the kinase still bound, per cent of control (CDK5 (human)) was 96%. It also gave a kinase still bound, per cent of control (MAP3K9 (human)) of 21%, a kinase still bound, per cent of control [3] of 14% and a kinase still bound, per cent of control (CDKL2 (human)) of 0.15%. For the same molecule, the kinase still bound, per cent of control (LTK (human)) was 100%, the kinase still bound, per cent of control (MINK1 (human)) was 4.3% and the kinase still bound, per cent of control (STK16 (human)) was 100%. The kinase still bound, per cent of control (MKNK2 (human)) was 18%, the kinase still bound, per cent of control (EGFR (human)) was 12% and the kinase still bound, per cent of control (ULK3 (human)) was 1.6%. It also gave a kinase still bound, per cent of control (TGFBR1 (human)) of 99%, a kinase still bound, per cent of control (TAOK1 (human)) of 7% and a kinase still bound, per cent of control (PRKCH (human)) of 100%. For the same molecule, the kinase still bound, per cent of control (MAP3K10 (human)) was 30%, the kinase still bound, per cent of control (STK17A (human)) was 11% and the kinase still bound, per cent of control (ACVR1B (human)) was 96%. The kinase still bound, per cent of control (GAK (human)) was 51%, the kinase still bound, per cent of control (DDR1 (human)) was 0% and the kinase still bound, per cent of control [4] was 0.1%. For the same molecule, the kinase still bound, per cent of control (MYLK (human)) was 67%, the kinase still bound, per cent of control (EPHA7 (human)) was 76% and the kinase still bound, per cent of control (PIK3CG (human)) was 100%. It also gave a kinase still bound, per cent of control (MAPK4 (human)) of 100%, a kinase still bound, per cent of control (MAP4K1 (human)) of 0% and a kinase still bound, per cent of control (MAP3K3 (human)) of 0.3%. The kinase still bound, per cent of control (FLT4 (human)) was 26%, the kinase still bound, per cent of control (NUAK1 (human)) was 98% and the kinase still bound, per cent of control (EPHA5 (human)) was 20%. It also gave a kinase still bound, per cent of control (LIMK1 (human)) of 15%, a kinase still bound, per cent of control (CLK3 (human)) of 100% and a kinase still bound, per cent of control (IRAK3 (human)) of 87%.
In the case of `COc1cc(N2CCC(N3CCN(C)CC3)CC2)ccc1Nc1ncc(Cl)c(Nc2ccccc2S(=O)(=O)C(C)C)n1`, the kinase still bound, per cent of control (FGFR2 (human)) is reported as 0.95%, the kinase still bound, per cent of control (PRKCQ (human)) is reported as 13% and the kinase still bound, per cent of control (STK25 (human)) is reported as 40%. It also gave a kinase still bound, per cent of control (MAPK9 (human)) of 12%, a kinase still bound, per cent of control [1] of 2% and a kinase still bound, per cent of control (DAPK1 (human)) of 6.4%. It also gave a kinase still bound, per cent of control (RPS6KA3 KD1 (human)) of 0.55%, a kinase still bound, per cent of control (MAPK14 (human)) of 40% and a kinase still bound, per cent of control (PLK4 (human)) of 0%. For the same molecule, the kinase still bound, per cent of control (CHEK2 (human)) was 0%, the kinase still bound, per cent of control (CDK5 (human)) was 5.2% and the kinase still bound, per cent of control (MAP3K9 (human)) was 0.35%. For the same molecule, the kinase still bound, per cent of control [3] was 0.95%, the kinase still bound, per cent of control (CDKL2 (human)) was 40% and the kinase still bound, per cent of control (LTK (human)) was 0%. It also gave a kinase still bound, per cent of control (MINK1 (human)) of 40%, a kinase still bound, per cent of control (STK16 (human)) of 2.8% and a kinase still bound, per cent of control (MKNK2 (human)) of 1.4%. For the same molecule, the kinase still bound, per cent of control (EGFR (human)) was 0.1%, the kinase still bound, per cent of control (ULK3 (human)) was 0% and the kinase still bound, per cent of control (TGFBR1 (human)) was 0.2%. It also gave a kinase still bound, per cent of control (TAOK1 (human)) of 0.1%, a kinase still bound, per cent of control (PRKCH (human)) of 40% and a kinase still bound, per cent of control (MAP3K10 (human)) of 4.6%. For the same molecule, the kinase still bound, per cent of control (STK17A (human)) was 5.9%, the kinase still bound, per cent of control (ACVR1B (human)) was 0.05% and the kinase still bound, per cent of control (GAK (human)) was 0.1%. The kinase still bound, per cent of control (DDR1 (human)) was 0.05%, the kinase still bound, per cent of control [4] was 4.2% and the kinase still bound, per cent of control (MYLK (human)) was 0.5%. It also gave a kinase still bound, per cent of control (EPHA7 (human)) of 0.4%, a kinase still bound, per cent of control (PIK3CG (human)) of 40% and a kinase still bound, per cent of control (MAPK4 (human)) of 40%. It also gave a kinase still bound, per cent of control (MAP3K3 (human)) of 2.8%, a kinase still bound, per cent of control (FLT4 (human)) of 0.05% and a kinase still bound, per cent of control (NUAK1 (human)) of 0.75%. For the same molecule, the kinase still bound, per cent of control (EPHA5 (human)) was 21%, the kinase still bound, per cent of control (LIMK1 (human)) was 2.2% and the kinase still bound, per cent of control (CLK3 (human)) was 3%. The kinase still bound, per cent of control (IRAK3 (human)) was 0.15%.
`CCN1CCN(Cc2ccc(NC(=O)c3ccc(C)c(Oc4ccnc5[nH]ccc45)c3)cc2C(F)(F)F)CC1` was tested, and the kinase still bound, per cent of control (FGFR2 (human)) was 1.4%, the kinase still bound, per cent of control (MAPK9 (human)) was 0% and the kinase still bound, per cent of control [1] was 11%. For the same molecule, the kinase still bound, per cent of control (MAPK14 (human)) was 0%, the kinase still bound, per cent of control [2] was 1.2% and the kinase still bound, per cent of control (CDK5 (human)) was 19%. It also gave a kinase still bound, per cent of control [3] of 0.05%, a kinase still bound, per cent of control (CDKL2 (human)) of 0.9% and a kinase still bound, per cent of control (LTK (human)) of 1.2%. For the same molecule, the kinase still bound, per cent of control (MKNK2 (human)) was 4.2%, the kinase still bound, per cent of control (EGFR (human)) was 5.6% and the kinase still bound, per cent of control (ULK3 (human)) was 0.1%. For the same molecule, the kinase still bound, per cent of control (TAOK1 (human)) was 3%, the kinase still bound, per cent of control (GAK (human)) was 31% and the kinase still bound, per cent of control (DDR1 (human)) was 0.05%. It also gave a kinase still bound, per cent of control [4] of 1.1%, a kinase still bound, per cent of control (MAP4K1 (human)) of 1.6% and a kinase still bound, per cent of control (MAP3K3 (human)) of 12%. It also gave a kinase still bound, per cent of control (FLT4 (human)) of 0.2%.
